# Reference: the supplement of paper PMC7108870
# Columns and labels:
# HEK293sieSTAT3(Y640F) [1] = experiment: drug sensitivity score (DSS), cytotoxicity CellTox Green (DSS (dimensionless)); higher = more cytotoxic; extreme values may be limits of the assay; details: 72 h; STAT3 variant: Y640F (constitutively active)
# Procedure, shortened: (§1)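 Compounds were acoustically pre-plated in 384-well plates at 5 concentrations spaced by 10-fold dilutions, and HEK293 cells overexpressing wild-type or mutant STAT3 and carrying a STAT3-dependent luciferase reporter were added at 100,000 cells/ml in 20 μl. After 72 hours at 37°C and 5% CO2, the plates were read on a PHERAstar FS for CellTox Green fluorescence (485/520 nm) and then CellTiter-Glo luminescence. A drug sensitivity score derived from dose-response curve area was calculated in Breeze from values normalised to negative and positive control wells.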
# HEK293sieSTAT3(wt) [2] = experiment: as above; details: 72 h; STAT3 variant: wild type
# Procedure, shortened: as §1
# HEK293sieSTAT3(Y640F) [3] = experiment: drug sensitivity score (DSS), viability CellTiter-Glo (DSS (dimensionless)); higher = more growth inhibition; extreme values may be limits of the assay; details: 72 h; STAT3 variant: Y640F (constitutively active)
# Procedure, shortened: as §1
# HEK293sieSTAT3(wt) [4] = experiment: as above; details: 72 h; STAT3 variant: wild type
# Procedure, shortened: as §1
SMILES,drug sensitivity score (HEK293sieSTAT3(Y640F) [1]),drug sensitivity score (HEK293sieSTAT3(wt) [2]),drug sensitivity score (HEK293sieSTAT3(Y640F) [3]),drug sensitivity score (HEK293sieSTAT3(wt) [4])
C[C@]12C=CC(=O)C=C1CC[C@@H]1[C@@H]2C(=O)C[C@@]2(C)[C@H]1CC[C@]2(O)C(=O)CO [Prednisone] (top concentration tested 10000 nM),0.59,0,0.65,3.96
COc1cccc(OCCCN)c1-c1cc(Nc2cnc(C#N)cn2)n[nH]1 [Prexasertib] (top concentration tested 10000 nM),15.4,12.4,42.1,37
CNNCc1ccc(C(=O)NC(C)C)cc1 [Procarbazine] (top concentration tested 10000 nM),0,0,0,0
Cc1cc(-c2ncc(-c3cccnc3)cc2/C=C/c2ccccc2)cnc1-c1cccnc1 [Pyridoclax] (top concentration tested 25000 nM),1.38,5.06,12.2,10.1
Cn1cc(CNCC2CCN(c3ncc(C(=O)NO)cn3)CC2)c2ccccc21 [Quisinostat] (top concentration tested 1000 nM),6.14,7.75,16.3,17.9
CC(C)(C)c1cc(NC(=O)Nc2ccc(-c3cn4c(n3)sc3cc(OCCN5CCOCC5)ccc34)cc2)no1 [Quizartinib] (top concentration tested 1000 nM),0,1.05,2.15,2.01
Cn1c(Nc2ccc(C(F)(F)F)cc2)nc2cc(Oc3ccnc(-c4ncc(C(F)(F)F)[nH]4)c3)ccc21 [RAF265] (top concentration tested 1000 nM),0,0.14,0,0.25
CNC(=O)c1ccc(N2C(=S)N(c3ccc(C#N)c(C(F)(F)F)c3)C(=O)C23CCC3)cc1F [RD162] (top concentration tested 10000 nM),0,0.2,2.62,1.68
CCNC(=O)Nc1ccc(-c2nc3c(c(N4CCOC[C@@H]4C)n2)CCN(C2COC2)C3)cc1 [RG-7603] (top concentration tested 2500 nM),0,0,6.22,8.47
Nc1cc(F)ccc1NC(=O)/C=C/c1cnn(C/C=C/c2ccccc2)c1 [RGFP966] (top concentration tested 10000 nM),0,0,5.46,6.28
Cc1cnc(NC(=O)Nc2cc(Br)c(C)cc2OC[C@@H]2CNCCO2)cn1 [Rabusertib] (top concentration tested 1000 nM),0.03,1.61,5.38,5.03
C[C@@H]1C[C@H]2O[C@@H]2/C=C\C=C\C(=O)Cc2c(Cl)c(O)cc(O)c2C(=O)O1 [Radicicol] (top concentration tested 10000 nM),7.65,14.4,19.5,25.1
CC(C)(C)Cn1c(N)nc2ccc(-c3[nH]c(C(C)(C)C)nc3-c3ccc(F)cc3)nc21 [Ralimetinib] (top concentration tested 10000 nM),0.02,0,0.9,0
O=C(c1ccc(OCCN2CCCCC2)cc1)c1c(-c2ccc(O)cc2)sc2cc(O)ccc12 [Raloxifene] (top concentration tested 10000 nM),0,6.26,3.8,5.05
Cc1nc(=O)c2cc(CN(C)c3ccc(C(=O)N[C@@H](CCC(=O)O)C(=O)O)s3)ccc2[nH]1 [Raltitrexed] (top concentration tested 1000 nM),0,2.49,20.1,15.1
CNC(=O)c1cc(Oc2ccc(NC(=O)Nc3cc(C(C)(C)C)nn3-c3ccc4ncccc4c3)c(F)c2)ccn1 [Rebastinib] (top concentration tested 1000 nM),0,1.16,0,0
COc1cc(F)c(F)c(Nc2ccc(I)cc2F)c1NS(=O)(=O)C1(C[C@H](O)CO)CC1 [Refametinib] (top concentration tested 10000 nM),0,0,2.4,1.58
CNC(=O)c1cc(Oc2ccc(NC(=O)Nc3ccc(Cl)c(C(F)(F)F)c3)c(F)c2)ccn1 [Regorafenib] (top concentration tested 10000 nM),0,0,6.11,6.43
CN(C)Cc1ccc(S(=O)(=O)n2ccc(/C=C/C(=O)NO)c2)cc1 [Resminostat] (top concentration tested 10000 nM),5.95,6.75,11.5,12.3
CN(C)C(=O)c1cc2cnc(Nc3ccc(N4CCNCC4)cn3)nc2n1C1CCCC1 [Ribociclib] (top concentration tested 10000 nM),0.06,2.66,4.33,5.65
CO[C@H]1C[C@@H]2CC[C@@H](C)[C@@](O)(O2)C(=O)C(=O)N2CCCC[C@H]2C(=O)O[C@H]([C@H](C)C[C@@H]2CC[C@@H](OP(C)(C)=O)[C@H](OC)C2)CC(=O)[C@H](C)/C=C(\C)[C@@H](O)[C@@H](OC)C(=O)[C@H](C)C[C@H](C)/C=C/C=C/C=C/1C [Ridaforolimus] (top concentration tested 100 nM),0,0,8.94,13.9
COc1cc(OC)c(/C=C/S(=O)(=O)Cc2ccc(OC)c(NCC(=O)O)c2)c(OC)c1 [Rigosertib] (top concentration tested 10000 nM),6.71,18.7,21.8,21.9

SMILES,drug sensitivity score (HEK293sieSTAT3(Y640F) [1]),drug sensitivity score (HEK293sieSTAT3(wt) [2]),drug sensitivity score (HEK293sieSTAT3(Y640F) [3]),drug sensitivity score (HEK293sieSTAT3(wt) [4])
C=CC(=O)Nc1cccc(Nc2nc(Nc3ccc(N4CCN(C(C)=O)CC4)cc3OC)ncc2C(F)(F)F)c1 [Rociletinib] (top concentration tested 10000 nM),0.23,4.1,8.18,7.99
O=C(CCCCCCNC(=O)c1cnc(N(c2ccccc2)c2ccccc2)nc1)NO [Rocilinostat] (top concentration tested 10000 nM),1.02,0.53,8,6.92
CS(=O)(=O)c1ccc(C2=C(c3ccccc3)C(=O)OC2)cc1 [Rofecoxib] (top concentration tested 10000 nM),0,0,0,0
C/C=C1\NC(=O)[C@H]2CSSCC/C=C/[C@H](CC(=O)N[C@H](C(C)C)C(=O)N2)OC(=O)[C@H](C(C)C)NC1=O [Romidepsin] (top concentration tested 1000 nM),23.6,29.9,32.4,29.5
CN(C)C[C@@H]1CCn2cc(c3ccccc32)C2=C(C(=O)NC2=O)c2cn(c3ccccc23)CCO1 [Ruboxistaurin] (top concentration tested 10000 nM),6.6,6.85,9,8.97
CNCc1ccc(-c2[nH]c3cc(F)cc4c3c2CCNC4=O)cc1 [Rucaparib] (top concentration tested 10000 nM),0,0.89,4.37,4.23
N#CC[C@H](C1CCCC1)n1cc(-c2ncnc3[nH]ccc23)cn1 [Ruxolitinib] (top concentration tested 10000 nM),0.39,0.1,2.89,3.2
CC(C)N(CCCNC(=O)Nc1ccc(C(C)(C)C)cc1)C[C@H]1O[C@@H](n2cc(Br)c3c(N)ncnc32)[C@H](O)[C@@H]1O [SGC0946] (top concentration tested 10000 nM),0.07,6.85,3.05,7.15
COc1ccc(CCc2nc3cc(-c4c(C)noc4C)ccc3n2C[C@H](C)N2CCOCC2)cc1Cl [SGC-CBP30] (top concentration tested 25000 nM),0.32,4.24,3.16,4.3
CN1CCC(CNc2ccc3ncc(-c4cccc(OC(F)(F)F)c4)n3n2)CC1 [SGI-1776] (top concentration tested 10000 nM),4.99,7.56,6.8,9.07
Cn1cc(-c2ccc3nnc(Sc4ccc5ncccc5c4)n3n2)cn1 [SGX-523] (top concentration tested 5000 nM),0.89,0,0,0.49
CN(CC(=O)N(Cc1ccc(C2CCCCC2)cc1)c1ccc(C(=O)O)cc1)S(=O)(=O)c1c(F)c(F)c(F)c(F)c1F [SH-4-54] (top concentration tested 25000 nM),5.59,9.04,10.1,10.8
CC(C)NC(=O)COc1cccc(-c2nc(Nc3ccc4[nH]ncc4c3)c3ccccc3n2)c1 [SLx-2119] (top concentration tested 5000 nM),0,0.57,10.7,5.8
CCc1c2c(nc3ccc(O)cc13)-c1cc3c(c(=O)n1C2)COC(=O)[C@]3(O)CC [SN-38] (top concentration tested 10000 nM),14.3,22.4,42,40.7
CC(C)(C)c1cnc(CSc2cnc(NC(=O)C3CCNCC3)s2)o1 [SNS-032] (top concentration tested 10000 nM),10.3,22.6,25.3,26.7
O=C(Nc1cccc(Cl)c1)Nc1ncc(CCNc2ncnc3ccsc23)s1 [SNS-314] (top concentration tested 1000 nM),0,2.17,5.69,5
Cc1cc2c(C(=O)NC[C@H](C)c3ccccc3)c(O)c(O)cc2c(O)c1-c1c(C)cc2c(C(=O)NC[C@H](C)c3ccccc3)c(O)c(O)cc2c1O [Sabutoclax] (top concentration tested 25000 nM),12.2,9.82,26.4,27.8
CNC(=O)CN1CCC(Oc2cc3c(Nc4cccc(Cl)c4F)ncnc3cc2OC)CC1 [Sapitinib] (top concentration tested 1000 nM),0,0,1.89,0
CN1CCN(CCOc2cc(OC3CCOCC3)c3c(Nc4c(Cl)ccc5c4OCO5)ncnc3c2)CC1 [Saracatinib] (top concentration tested 10000 nM),1.77,9.4,7.28,6.87
CC[C@H](CO)Nc1nc(NCc2ccccc2)c2ncn(C(C)C)c2n1 [Seliciclib] (top concentration tested 10000 nM),2.48,6.62,6.02,6.69
O=C(/C=C\n1cnc(-c2cc(C(F)(F)F)cc(C(F)(F)F)c2)n1)NNc1cnccn1 [Selinexor] (top concentration tested 10000 nM),14.5,26.4,26.9,30.8
